Assay: Content of drug solution in 2-methyl-2-propanol during stirring by Polytron or stirrer
Type: physicochemical
Details: about 40° C.; for Content [vs. 0 h %]: about 4.0 mg/mL in 2-methyl-2-propanol
Experimental: Then, whether the content and analogous substance are affected by stirring in a homomixer was considered. To cis[((1R,2R)-1,2-cyclohexanediamine-N,N′)bis(tetradecanoyloxy)]platinum(II) monohydrate was added 2-methyl-2-propanol to a liquid formulation concentration of about 4.0 mg/mL. This was prepared in two Erlenmeyer flasks. One Erlenmeyer flask was stirred with a stirrer at a liquid temperature of about 40° C. after ultrasonication. The other Erlenmeyer flask was stirred at about 10000 rpm at a liquid temperature of about 40° C. using Polytron pulverizer (pulverization diameter G8) manufactured by IKA that pulverizes and dissolves by the same mechanism as a homogenizer. The stirring was continued with the time point when the bulk was dissolved as 0 hr. The drug solution was sampled with the lapse of time and the dissolution state was observed and the content and analogous substances were measured.

For `CCCCCCCCCCCCCC(=O)[O][Pt]1([O]C(=O)CCCCCCCCCCCCC)[NH][C@@H]2CCCC[C@H]2[NH]1` [bulk, cis[((1R,2R)-1,2-cyclohexanediamine-N,N′)bis(tetradecanoyloxy)]platinum(II) monohydrate], the “Content [vs. 0 h %]” value (Polytron, stirring time 0) was 100%, the “Content [vs. 0 h %]” value (Polytron, stirring time 0.5 h) was 99.5% and the “Content [vs. 0 h %]” value (Polytron, stirring time 1 h) was 99.4%. For the same compound, the “Content [vs. 0 h %]” value (Polytron, stirring time 2 h) was 100.9%, the “Content and analogous substances with the lapse of stirring time” value (any stirring method (Polytron or stirrer)) was “showed no change” and the “Content [vs. 0 h %]” value (stirrer, stirring time 0) was 100%. For the same compound, the “Content [vs. 0 h %]” value (stirrer, stirring time 0.5 h) was 100.9%, the “Content [vs. 0 h %]” value (stirrer, stirring time 1 h) was 100.2% and the “Content [vs. 0 h %]” value (stirrer, stirring time 2 h) was 103.1%.
